Key:
[1] = target: T1, Deoxyuridine triphosphatase (Trypanosoma cruzi (strain CL Brener), UniProt Q4DI50); assay: Inhibition of Trypanosoma cruzi dUTPase at 1 mM
T1 sequence (Q4DI50 whole entry): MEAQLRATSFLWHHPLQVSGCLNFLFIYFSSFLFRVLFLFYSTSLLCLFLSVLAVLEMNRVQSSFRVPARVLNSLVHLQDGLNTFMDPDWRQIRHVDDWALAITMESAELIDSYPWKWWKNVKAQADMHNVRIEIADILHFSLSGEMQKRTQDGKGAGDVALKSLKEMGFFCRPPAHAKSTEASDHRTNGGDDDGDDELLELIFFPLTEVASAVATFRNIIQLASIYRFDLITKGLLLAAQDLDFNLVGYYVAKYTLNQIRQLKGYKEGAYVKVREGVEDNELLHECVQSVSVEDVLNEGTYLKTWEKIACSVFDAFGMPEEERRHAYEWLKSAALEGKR

[2] = tested on: Trypanosoma cruzi; assay: Antitrypanosomal activity against Trypanosoma cruzi; assay type: functional, organism-based
[3] = tested on: L6; assay: Cytotoxicity against rat L6 cells; assay type: functional, cell-based

SMILES	Ki [1] [µM]	IC50 [2] [µM]	IC50 [3] [µM]
C[C@H](NC(=O)Cn1ccc(=O)[nH]c1=O)C(=O)N[C@H](C(=O)O)[C@@H](C)O	> 1000	> 87	> 262
C[C@H](NC(=O)Cn1ccc(=O)[nH]c1=O)C(=O)N[C@@H](Cc1ccc(O)cc1)C(=O)O	> 1000	> 74	214
C[C@H](NC(=O)Cn1ccc(=O)[nH]c1=O)C(=O)NCC(=O)O	> 1000	> 100	> 301
C[C@H](NC(=O)Cn1ccc(=O)[nH]c1=O)C(=O)N[C@@H](CCC(=O)O)C(=O)O	> 1000	> 81	210
O=c1ccn([C@H]2C[C@H](O)[C@@H](COP(=O)(O)O)O2)c(=O)[nH]1 [DEOXYURIDINE MONOPHOSPHATE]	18.4		
O=C(Cn1ccc(=O)[nH]c1=O)NCC(=O)N[C@@H](Cc1ccc(O)cc1)C(=O)O	> 1000	> 76	> 230
NCCCC[C@H](NC(=O)CNC(=O)Cn1ccc(=O)[nH]c1=O)C(=O)O	> 1000	> 84	> 253
O=C(O)CNC(=O)Cn1ccc(=O)[nH]c1=O	> 1000	> 132	> 396
C[C@@H](O)[C@H](NC(=O)CNC(=O)Cn1ccc(=O)[nH]c1=O)C(=O)O	> 1000	> 91	> 274
C[C@H](NC(=O)Cn1ccc(=O)[nH]c1=O)C(=O)N[C@@H](CCCCN)C(=O)O	> 1000	> 81	> 243
C[C@H](NC(=O)Cn1ccc(=O)[nH]c1=O)C(=O)N[C@@H](CCC(N)=O)C(=O)O	> 1000	> 81	> 243
COc1cc([C@@H]2c3cc4c(cc3[C@H](O)[C@H]3COC(=O)[C@H]23)OCO4)cc(OC)c1OC [PODOFILOX]			0.15
C[C@H](NC(=O)Cn1ccc(=O)[nH]c1=O)C(=O)N[C@@H](CC(=O)O)C(=O)O	> 1000	> 84	> 252
O=C(Cn1ccnc1[N+](=O)[O-])NCc1ccccc1 [BENZNIDAZOLE]		1.04	

— ChEMBL document CHEMBL1137425, “Design, synthesis and evaluation of novel uracil amino acid conjugates for the inhibition of Trypanosoma cruzi dUTPase” (Bioorg Med Chem Lett, 2006)
